Read-outs that look alike come from different tables or passages of the source.

The text below walks through data of patent publication US20260217732A1, “WRN INHIBITOR” (SUZHOU PUHE BIOPHARMA CO., LTD., priority 2022, published 2026).

The test system of assay [1] is SW48 colorectal cancer cells. The assay is described as follows: 2D antiproliferation on MSI-H SW48 cells, CTG, 5 days. It counts as cell-based. The conditions noted are these: for IC50 / inhibition at 38.15 pM / inhibition at 0.000152588 µM / inhibition at 0.000610352 µM / inhibition at 0.00244141 µM / inhibition at 0.00976562 µM / inhibition at 0.0390625 µM / inhibition at 0.15625 µM / inhibition at 0.625 µM / inhibition at […] / inhibition at 10 µM: Homo sapiens; for IC50: 120 h, SW48 MSI-H, 5 days; for inhibition at 38.15 pM: SW48, 0.038146973 nM; for inhibition at 0.000152588 µM: SW48, 0.152587891 nM; for inhibition at 0.000610352 µM: SW48, 0.610351563 nM; for inhibition at 0.00244141 µM: SW48, 2.44140625 nM; for inhibition at 0.00976562 µM: SW48, 9.765625 nM; for inhibition at 0.0390625 µM: SW48, 39.0625 nM; for inhibition at 0.15625 µM: SW48, 156.25 nM; for inhibition at 0.625 µM: SW48, 625 nM; for inhibition at […]: SW48, 2500 nM; for inhibition at 10 µM: SW48, 10000 nM. The method, then:
The molecules of the present disclosure were tested for their anti-proliferative activity on MSI-H tumor cells.
SW48 colorectal cancer cells with MSI were cultured in a RMI1640 medium containing 10% FBS and 1% penicillin-streptomycin, and the mixture was cultured in a 37° C., 5% CO2 incubator. 40 μL of cell suspension was added to each well of a 384-well microplate. […] of compounds with different concentrations were added to each well using Echo, and the mixtures were cultured in a 37° C., 5% CO2 incubator for 5 days. 40 μL of CTG solution (Promega, Cat No. G7573) was added to each well and incubated in a 37° C., 5% CO2 incubator in the dark for 30 minutes. The luminescence value was read using an Envision multi-function microplate reader (Perkin Elmer, catalog number Envision 2104). The optical signal is proportional to the amount of ATP in the system, while the ATP content directly characterizes the number of viable cells in the system.

The target of another assay is T1, WRN enzyme (Homo sapiens, UniProt Q14191).
T1 construct: 10 μL (2×) of WRN enzyme solution was added
T1 sequence (Q14191 whole entry): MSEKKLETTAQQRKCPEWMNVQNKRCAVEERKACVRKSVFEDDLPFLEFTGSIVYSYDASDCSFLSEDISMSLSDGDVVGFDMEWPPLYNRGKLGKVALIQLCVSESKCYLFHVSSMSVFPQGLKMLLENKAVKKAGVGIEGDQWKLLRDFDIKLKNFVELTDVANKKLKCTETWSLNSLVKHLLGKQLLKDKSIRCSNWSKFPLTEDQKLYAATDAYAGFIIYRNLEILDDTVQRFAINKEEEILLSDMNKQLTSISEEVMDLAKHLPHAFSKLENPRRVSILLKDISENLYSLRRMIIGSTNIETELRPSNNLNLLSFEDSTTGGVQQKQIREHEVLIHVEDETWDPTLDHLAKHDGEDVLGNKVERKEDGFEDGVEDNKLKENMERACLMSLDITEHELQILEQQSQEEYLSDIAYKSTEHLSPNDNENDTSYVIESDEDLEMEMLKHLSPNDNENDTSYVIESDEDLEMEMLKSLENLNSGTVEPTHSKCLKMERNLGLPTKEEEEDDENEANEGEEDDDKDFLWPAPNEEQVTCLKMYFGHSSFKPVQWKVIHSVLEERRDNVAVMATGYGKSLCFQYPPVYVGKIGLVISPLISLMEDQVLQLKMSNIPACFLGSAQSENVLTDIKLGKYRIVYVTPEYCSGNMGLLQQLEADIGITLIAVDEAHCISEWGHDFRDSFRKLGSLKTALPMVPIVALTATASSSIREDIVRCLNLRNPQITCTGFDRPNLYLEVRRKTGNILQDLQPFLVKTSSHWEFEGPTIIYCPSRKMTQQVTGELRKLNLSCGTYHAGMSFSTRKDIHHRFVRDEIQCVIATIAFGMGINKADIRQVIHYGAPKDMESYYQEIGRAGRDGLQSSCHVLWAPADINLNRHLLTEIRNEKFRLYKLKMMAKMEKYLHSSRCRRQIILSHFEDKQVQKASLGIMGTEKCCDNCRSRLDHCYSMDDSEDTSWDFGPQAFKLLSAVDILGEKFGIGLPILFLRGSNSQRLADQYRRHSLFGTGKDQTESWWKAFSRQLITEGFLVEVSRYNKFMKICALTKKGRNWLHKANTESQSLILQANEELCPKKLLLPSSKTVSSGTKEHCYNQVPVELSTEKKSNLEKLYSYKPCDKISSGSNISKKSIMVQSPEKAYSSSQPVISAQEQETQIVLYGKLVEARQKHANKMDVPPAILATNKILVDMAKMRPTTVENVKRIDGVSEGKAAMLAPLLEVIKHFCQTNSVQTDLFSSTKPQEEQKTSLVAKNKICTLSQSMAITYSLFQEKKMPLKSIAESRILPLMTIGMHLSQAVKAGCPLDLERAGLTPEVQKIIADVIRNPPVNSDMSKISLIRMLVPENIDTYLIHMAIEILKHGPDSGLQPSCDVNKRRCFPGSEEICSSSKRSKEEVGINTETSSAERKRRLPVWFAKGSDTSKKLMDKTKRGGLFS
As to the kind of experiment: WRN helicase hydrolysis (unwinding) of double-stranded DNA, fluorescence assay. It counts as biochemical. The conditions noted are these: 30 min pre-incubation, 60 min reaction. The method, then:
• The molecules of the present disclosure were tested for their activities on the WRN helicase hydrolysis of double-stranded DNA (Table 1).
A working solution to be tested and a buffer were prepared. The compound to be tested was dissolved in DMSO and subjected to 4× dilution (with 10 μM final concentration as the starting concentration). 0.2 μL of the solution of the compound to be tested was added to the 384-well plate and 10 μL (2×) of WRN enzyme solution was added. The solution was incubated in the dark for 30 minutes. Then, 10 μL of a substrate detection solution containing double-stranded DNA was added to initiate the reaction (the DNA has a length of 19 bp, and labeled with TAMRA and BHQ2 at 3′ and 5′-ends, respectively). The solution was incubated at room temperature for 60 minutes. The inhibitory activities (IC50) against WRN enzyme were calculated based on the change of Ex530/Em590 in the blank group (DMSO) and the compound group.

The subject of assay [2] is HT-29 colorectal cancer cells. As to the kind of experiment: 2D antiproliferation on MSS HT-29 cells, CTG, 5 days. It counts as cell-based. The settings on record: Homo sapiens, 120 h, HT-29 MSS. The method, then: The molecules of the invention were tested for their anti-proliferative activities on MSS tumor cells.
HT-29 colorectal cancer cells with MSS were cultured in a McCoy's 5A medium containing 10% FBS and 1% penicillin-streptomycin in a 37° C., 5% CO2 constant temperature incubator. 40 μL of cell suspension was added to each well of a 384-well microplate. […] of compounds with different concentrations were added to each well using Echo. The mixtures were cultured in a 37° C., 5% CO2 constant temperature incubator for 5 days. 40 μL of CTG solution (Promega, Cat No. G7573) was added to each well, and the mixture was incubated in a 37° C., 5% CO2 constant temperature incubator for 30 minutes in the dark. The luminescence value was read using an Envision multi-function microplate reader (Perkin Elmer, catalog number Envision 2104). The optical signal is proportional to the amount of ATP in the system, while the ATP content directly characterizes the number of viable cells in the system.

The mark [3] stands for this setting: read-out: Average Value/Inhibition Rate.
[4] abbreviates: read-out: Test 1/Inhibition Rate.
Setting [5] is: read-out: Test 2/Inhibition Rate.

On to `CCc1c(N2CCN(C(=O)c3ncccc3O)CC2)c(=O)n2nc(-c3cc4c(s3)COC4)nc2n1CC(=O)Nc1ccc(C(F)(F)F)c2ccsc12` [P58], for which the IC50 – broadly, the concentration at which inhibition is half-maximal – is 123 nM in assay [1], 2.9 nM against WRN enzyme and > 10000 nM in assay [2].
For `CCc1c(N2CCN(C(=O)c3ncccc3O)CC2)c(=O)n2nc(-c3cnc(CO)s3)nc2n1CC(=O)Nc1ccc(C(F)(F)F)cc1Cl` [P11], the concentration for half-maximal inhibition (IC50) was 127 nM in assay [1], 1.7 nM against WRN enzyme and > 10000 nM in assay [2].
Take `CCc1c(N2CCN(C(=O)c3ncccc3O)CC2)c(=O)n2nc(-c3sccc3N)nc2n1CC(=O)Nc1ccc(C(F)(F)F)cc1Cl` [P8]: the IC50 was 566 nM in assay [1] and 3.7 nM against WRN enzyme.
In the case of `CCc1c(N2CCN(C(=O)c3ncccc3O)CC2)c(=O)n2nc(-c3cc4cn[nH]c4s3)nc2n1CC(=O)Nc1ccc(C(F)(F)F)cc1Cl` [P13], the half-inhibitory concentration (IC50) in assay [1] came out at 72 nM; against WRN enzyme, 2.2 nM; in assay [2] it was 9110 nM.
For `CCc1c(N2CCN(C(=O)c3ncccc3O)CC2)c(=O)n2nc(-c3ccc(COC)s3)nc2n1CC(=O)Nc1ccc(C(F)(F)F)cc1Cl` [P10], the IC50 in assay [1] was 125 nM; against WRN enzyme it was 2.1 nM; in assay [2], > 10000 nM.
As for `CCc1c(N2CC[C@@H](NC(=O)c3ncnc(C)c3O)C2)c(=O)n2nc(C3=CCOCC3)nc2n1CC(=O)Nc1ccc(C(F)(F)F)cc1Cl` [P2], the IC50 was found to be 1110 nM in assay [1] and 2.3 nM against WRN enzyme.
For the compound `CCc1c(N2CCN(C(=O)c3ncccc3O)CC2)c(=O)n2nc(-c3cc4cnn(C)c4s3)nc2n1CC(=O)Nc1ccc(C(F)(F)F)cc1Cl` [P16], the IC50 is 120 nM in assay [1], 2.1 nM against WRN enzyme and > 10000 nM in assay [2].
Consider `CCc1c(N2CCN(C(=O)c3ncccc3O)CC2)c(=O)n2nc(-c3cc4c(s3)COC4)nc2n1CC(=O)Nc1ccc(C(F)(F)F)cc1Cl` [P20], for which the values for the 50% inhibitory concentration (IC50) (in assay [1]; against WRN enzyme; in assay [2]) were 126 nM, 1.6 nM and > 10000 nM, respectively.
For the compound `CCc1c(N2CCN(C(=O)c3ncccc3O)CC2)c(=O)n2nc(-c3cncs3)nc2n1CC(=O)Nc1ccc(C(F)(F)F)cc1Cl` [P5], the IC50 against WRN enzyme was 1.6 nM; in assay [2] it was > 10000 nM.
With `CCc1c(N2CCN(C(=O)c3ncnc(C)c3O)CC2)c(=O)n2nc(-c3cc4cn[nH]c4s3)nc2n1CC(=O)Nc1ccc(C(F)(F)F)cc1Cl` [P19], the “inhibitory activity on SW48 cells” value in assay [1] (39 nM) is given as “high inhibitory activity”. The compound further gave an IC50 in assay [1] of 82 nM. Further, in assay [1] (setting [3]), the inhibition at 38.15 pM is -0.502%, the inhibition at 0.000152588 µM is -1.21%, the inhibition at 0.000610352 µM is 2.86% and the inhibition at 0.00244141 µM was -3.38%. Further, in assay [1] (setting [3]), the inhibition at 0.00976562 µM is -3.51%, the inhibition at 0.0390625 µM is 1.51%, the inhibition at 0.15625 µM was 95.5% and the inhibition at 0.625 µM came to 97.6%. In addition, in assay [1] (setting [3]), the inhibition at […] stood at 98.6% and the inhibition at 10 µM stood at 102%. In assay [1] (setting [4]), the inhibition at 38.15 pM worked out at 2.13%, the inhibition at 0.000152588 µM is -2.38%, the inhibition at 0.000610352 µM was found to be 3.47% and the inhibition at 0.00244141 µM is -2.94%. Besides, in assay [1] (setting [4]), the inhibition at 0.00976562 µM is -1.53%, the inhibition at 0.0390625 µM worked out at 3.47%, the inhibition at 0.15625 µM came to 96% and the inhibition at 0.625 µM was determined as 96.9%. In assay [1] (setting [4]), the inhibition at […] was 99.4% and the inhibition at 10 µM came to 103%. Further, in assay [1] (setting [5]), the inhibition at 38.15 pM was -3.13%, the inhibition at 0.000152588 µM was -0.0356%, the inhibition at 0.000610352 µM is 2.26% and the inhibition at 0.00244141 µM is -3.82%. In addition, in assay [1] (setting [5]), the inhibition at 0.00976562 µM was -5.5%, the inhibition at 0.0390625 µM was -0.452%, the inhibition at 0.15625 µM worked out at 95% and the inhibition at 0.625 µM was determined as 98.4%. Moreover, in assay [1] (setting [5]), the inhibition at […] came out at 97.8% and the inhibition at 10 µM was 102%. In addition, the IC50 in assay [2] was > 10000 nM.
As to `CCc1c(N2CCN(C(=O)c3ncccc3O)CC2)c(=O)n2nc(-c3cc4c(s3)COC4)nc2n1CC(=O)Nc1ccc(C(F)(F)F)cc1` [P28], the figures for the IC50 in assay [1] and in assay [2] were 136 nM and > 10000 nM, respectively.
